This is an account of results in publication PMC12154031, “Screening and Validation: AI-Aided Discovery of Dipeptidyl Peptidase-4 Inhibitory Peptides from Hydrolyzed Rice Proteins” (Foods, 2025).

Read-outs that look alike come from different tables or passages of the source. No end group written: not given here.

The target of assay [1] is T1, DPP-4 (Homo sapiens, UniProt P27487).
T1 construct: purchased Adamas (Shanghai Adamas Reagent Co., Ltd., Shanghai, China)
Nature of the assay: DPP-IV-inhibitory activity, Gly-Pro-pNA substrate. The following applies: 37 °C, 15 min; for IC50: Tris–HCl 20 mM pH 8.0, substrate Gly-Pro-pNA 1 mM (50 µL), 0.05 mg/mL DPP-4 (10 µL), peptide in ddH2O, dark, absorbance 405 nm, triplicate, four-parameter logistic fit. The class given is biochemical. The protocol:
The assay method for measuring the peptide inhibition of DPP-4 was based on the combination of two established protocols: the peptides were dissolved in ddH2O to prepare a gradient of concentrations and the DPP-4 enzyme was diluted in Tris–HCl (20 mM, pH 8.0). In a 96-well plate, 30 µL ddH2O, 10 µL peptide solution, 50 µL substrate (1 mM), and 10 µL DPP-4 enzyme (0.05 mg/mL) were added sequentially. Each peptide concentration was tested in triplicate and incubated at 37 °C in the dark for 15 min, and then 100 µL of 0.1 M NaHCO3 solution was added to stop the reaction. The absorbance at 405 nm was measured on a microplate reader, and the percent inhibition of DPP-4 was calculated at each concentration. The IC50 values for the four peptides were determined by fitting the dose–response curves with the log peptide concentration on the x-axis and the DI (%) on the y-axis. The DPP-IV-inhibition (DI) was calculated as follows:(8) DI%=(1−A405peptide−A405buffer/A405positive control−A405negtive control)×[…] where A405 (peptide) represents the optical density (at 405 nm) of the enzyme (DPP-IV) in the presence of the substrate (Gly-Pro-p-nitroanilide) and inhibitor (inhibitory peptide); A405 (buffer) represents the optical density of ddH2O; A405 (positive reaction) represents the optical density of the enzyme and the substrate in the absence of inhibitor; and A405 (negative reaction) represents the optical density of the enzyme in the absence of the substrate and inhibitor.
Origin 2024 was used to sort out the physical and chemical property data and create heatmaps to visualize the correlation between the peptide activity, the docking energy, and the physicochemical properties. GraphPad Prism 10 was used to perform non-linear regression of the DPP-4 percent inhibition versus the log[concentration]. The differences between the IC50 values of DPP-IV were subjected to the ordinary one-way ANOVA test. A p-value < 0.05 was considered significant. Other images were created by Python 3.13.2 and Adobe Illustrator 2022. We evaluated Section 2 of the article using the TRIPOD (Transparent Reporting of a multivariable prediction model for Individual Prognosis Or Diagnosis) framework from the EQUATOR Network.

For assay [2], the target named is T1, DPP-4. Also noted: method as in PMID 29963014, PMID 6427168. The following applies: known DPP-4 inhibitory peptide, positive control; ref [41],[42]; cited from earlier work.

T1 sequence (P27487 whole entry): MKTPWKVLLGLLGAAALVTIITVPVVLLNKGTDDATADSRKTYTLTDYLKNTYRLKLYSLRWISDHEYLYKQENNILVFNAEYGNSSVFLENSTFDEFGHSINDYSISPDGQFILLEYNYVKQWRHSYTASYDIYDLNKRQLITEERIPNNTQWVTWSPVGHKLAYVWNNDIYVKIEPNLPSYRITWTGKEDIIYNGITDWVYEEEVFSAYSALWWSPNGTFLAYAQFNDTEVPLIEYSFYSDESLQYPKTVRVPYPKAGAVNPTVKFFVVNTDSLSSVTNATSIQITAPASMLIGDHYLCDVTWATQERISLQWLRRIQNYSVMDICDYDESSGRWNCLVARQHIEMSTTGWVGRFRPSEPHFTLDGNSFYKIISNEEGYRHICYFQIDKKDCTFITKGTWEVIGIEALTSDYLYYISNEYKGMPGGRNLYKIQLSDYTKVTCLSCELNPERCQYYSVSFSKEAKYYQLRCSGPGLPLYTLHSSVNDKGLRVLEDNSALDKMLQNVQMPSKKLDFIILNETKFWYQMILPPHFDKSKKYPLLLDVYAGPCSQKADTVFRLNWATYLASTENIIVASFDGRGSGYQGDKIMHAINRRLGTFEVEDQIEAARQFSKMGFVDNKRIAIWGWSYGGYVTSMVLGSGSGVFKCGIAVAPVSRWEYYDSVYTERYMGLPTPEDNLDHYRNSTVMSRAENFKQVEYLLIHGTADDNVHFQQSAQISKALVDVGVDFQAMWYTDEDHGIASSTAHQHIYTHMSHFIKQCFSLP

One may read the IC50 as the concentration at which inhibition is half-maximal. For “CPPPPAAY [rice-derived proline-rich peptide, synthesized, purity of 95%]”, the IC50 result on DPP-4 [1] was “could not be determined”. The “DPP-4 inhibition (DI%), result in words” value on DPP-4 [1] (within the tested concentration range, pH 8.0, n = 3) is “showed no inhibitory effect”.
As for Diprotin A [IPI], the IC50 on DPP-4 [2] is ~3.5 µM.
On to PPPPPPPPA [PPPPPPPPA], for which the IC50 on DPP-4 [1] (read-out: IC50) is 177 ± 6 µM.
Same read-out and setting: to PPPPPY [PPPPPY] belongs 153 ± 5.7 µM; to PPPSPPPV [PPPSPPPV], 216 ± 4.5 µM.
